Source: patent US20250057849A1, “ANTIVIRAL COMPOSITION COMPRISING NUCLEOSIDE ANALOGUES DERIVED FROM NUCLEIC ACID AND PHARMACEUTICALLY ACCEPTABLE SALT THEREOF” (CJ CheilJedang Corporation, priority 2021, published 2025)
Where two headings read alike, the source gives them in different places.

Assays:
[1] = tested on: PRRSV (NA type, VR-2332 strain); experiment: PRRSV infection inhibition in Marc-145 cells (immunofluorescence staining); assay type: cell-based, Porcine Reproductive and Respiratory Syndrome virus; conditions: for IC50: Marc-145 cells, 100 TCID50/ml PRRSV, three days after treatment, read-out: PRRSV infection inhibition concentration IC50
[2] = tested on: PEDV (G1a type, SM98 strain); experiment: PEDV infection inhibition in Vero cells (PEDV detection kit on isolated RNA); assay type: cell-based, Porcine Epidemic Diarrhea virus; conditions: for IC50: Vero cells, 200 TCID50/ml PEDV, after 2 days, read-out: PEDV infection inhibition concentration IC50
Method: The next day, PEDV (G1a type, SM98 strain) of 200 TCID50/ml and inosine, xanthosine and guanosine in the dialdehyde and acyclic diol forms were treated to the cells simultaneously, and after 2 days, using commercialized Viral gene (DNA/RNA) extraction kit (iNtRON, 101410754), RNA was isolated. For the isolated RNA, using commercialized PEDV detection kit (Mediandiagnostics, NS-PED-31), the antiviral efficacy of the materials was verified.

PCV2 = PCV2 infection inhibition in PK15 cells (qPCR); assay type: cell-based, Porcine Circovirus Type 2; conditions: for IC50: PK15 cells, 200 TCID50/well PCV2, after 4 days, read-out: PCV2 infection inhibition concentration IC50
Method: For the isolated DNA, using PCV2-specific primers (F-[…] , R-[…] ) and realtime RT-qPCR experimental method (95° C., 30 seconds 1 cycle, 95° C., 20 seconds, 56° C., 60 seconds 40 cycles), the antiviral efficacy of the materials was verified.

PRV = experiment: microbe, parasite or virus in culture; assay type: cell-based, Porcine Rotavirus; conditions: for IC50: read-out: PRV infection inhibition concentration IC50
[3] = tested on: Swine Influenza virus (SIV); experiment: organism not typed; assay type: cell-based; conditions: for IC50: read-out: SIV infection inhibition concentration IC50
IBV = experiment: microbe, parasite or virus in culture; assay type: cell-based, Avian Infectious Bronchitis virus; conditions: for IC50: read-out: IBV infection inhibition concentration IC50
NDV = experiment: microbe, parasite or virus in culture; assay type: cell-based, Avian Newcastle Disease virus; conditions: for IC50: read-out: NDV infection inhibition concentration IC50
BVDV = BVDV infection inhibition in MDBK cells (RT-qPCR); assay type: cell-based, Bovine Viral Diarrhea virus; conditions: for IC50: MDBK cells, 200 TCID50/well BVDV, after 4 days, read-out: BVDV infection inhibition concentration IC50
Method: The next day, BVDV of 200 TCID50/well and inosine, xanthosine and guanosine in the dialdehyde and acyclic diol forms were treated to the cells simultaneously, and after 4 days, using commercialized Viral gene (DNA/RNA) extraction kit (iNtRON, 101410754), RNA was isolated.
For the isolated RNA, using BVDV-specific primers (F-[…] , R-[…] ) and realtime RT-qPCR experimental method (94° C., 10 minutes 1 cycle, 94° C., 10 seconds, 53° C., 20 seconds, 72° C., 30 seconds 35 cycles), the antiviral efficacy of the materials was verified.

BRV = BRV infection inhibition in MDBK cells (RT-qPCR); assay type: cell-based, Bovine Rotavirus; conditions: for IC50: MDBK cells, 200 TCID50/well BRV, after 4 days, read-out: BRV infection inhibition concentration IC50
Method: The next day, BRV of 200 TCID50/well and inosine, xanthosine and guanosine in the dialdehyde and acyclic diol forms were treated to the cells simultaneously, and after 4 days, using commercialized Viral gene (DNA/RNA) extraction kit (iNtRON, 101410754), RNA was isolated.
For the isolated RNA, using BRV-specific primers (F-[…] , R-[…] ) and realtime RT-qPCR experimental method (95° C., 10 minutes 1 cycle, 95° C., 15 seconds, 60° C., 15 seconds, 72° C., 20 seconds 40 cycles), the antiviral efficacy of the materials was confirmed.

CPV = CPV infection inhibition in MDCK cells (qPCR); assay type: cell-based, Canine Parvovirus; conditions: for IC50: MDCK cells, 200 TCID50/well CPV, after 4 days, read-out: CPV infection inhibition concentration IC50 (Table 10)
Method: For the isolated DNA, using CPV-specific primers (F-[…] , R-[…] ) and realtime RT-qPCR experimental method (95° C., 5 minutes 1 cycle, 95° C., 10 seconds, 60° C., 30 seconds, 40 cycles), the antiviral efficacy of the materials was confirmed.

[4] = Water solubility (stated); assay type: physicochemical
[5] = mouse, in vivo
[6] = tested on: Influenza virus (2009 pandemic strain, CA04); conditions: for abnormal lesions due to fed materials (liver, stomach, spleen, kidney, heart, small intestine, large intestine): 250 mg/kg
in vitro = conditions: monkey
[7] = Cytotoxicity, PK15 cell test; conditions: pig, PK15 cells
[8] = Cytotoxicity, MDCK cell tests; conditions: dog, MDCK cells
MDCK cell line = experiment: Cytotoxicity, MDCK cell tests; conditions: cytotoxicity
[9] = Cytotoxicity, MDBK cell tests; conditions: bovine, MDBK cells
MDBK cell line = experiment: Cytotoxicity, MDBK cell tests; conditions: cytotoxicity
PRRSV (NA strain) = experiment: PRRS virus challenge test using piglets
[10] = Cytotoxicity (WST-1 / DAPI staining), PRRSV test cells; conditions: monkey, Marc-145 cells (monkey kidney)
PK15 cell line = experiment: Cytotoxicity, PK15 cell test; conditions: read-out: CC50 (Table 3, PCV2); cytotoxicity
Marc-145 cell line = experiment: Cytotoxicity (WST-1 / DAPI staining), PRRSV test cells
[11] = mice, 100 MLD50 CA04, 250 mg/kg intragastric
[12] = autopsy at 2 weeks, 50 mg/kg/day oral

O=C[C@@H](CO)O[C@H](C=O)n1cnc2c(=O)[nH]c(=O)[nH]c21 [Dialdehyde-xanthosine, dialdehyde form of xanthosine]
SI (selectivity index), PRRSV ([1]; CC50/IC50): >133.3 | IC50 [1]: 75 µM | SI (selectivity index), PEDV ([2]; CC50/IC50): >25.1 | IC50 ([2]; Porcine epidemic diarrhea virus, 48 h): 398 µM | SI (selectivity index), PCV2 (PCV2; CC50/IC50): >23 | IC50 (PCV2; Porcine circovirus 2, PK-15, 96 h): 436 µM | SI (selectivity index), PRV (PRV; CC50/IC50): >110.9 | IC50 (PRV; Rotavirus C, Vero, 72 h): ≤ 100 µM | IC50 (PRV): 90.2 µM | SI (selectivity index), SIV ([3]; CC50/IC50): >13.4 | IC50 ([3]; MDCK, 96 h): 748 µM | IC50 (IBV; Avian coronavirus, Vero, 96 h): 226 µM | SI (selectivity index), IBV (IBV; CC50/IC50): >44.3 | SI (selectivity index), NDV (NDV; CC50/IC50): >19 | IC50 (NDV; avian paramyxovirus 1, Vero, 72 h): 526 µM | IC50 (BVDV; Bovine viral diarrhea virus isolates and strains, 96 h): 0.0978 mM | SI (selectivity index), BVDV (BVDV; CC50/IC50): >102.2 | SI (selectivity index), BRV (BRV; CC50/IC50): >198.1 | IC50 (BRV; Rotavirus A, 96 h): 50.5 µM | SI (selectivity index), CPV (CPV; CC50/IC50): >45.2 | IC50 (CPV; Canine parvovirus, 96 h): 0.221 mM | water solubility [4]: slightly high | CC50 (Vero cell line; monkey): > 10 mM | half-life tendency compared with guanosine in the dialdehyde form [5]: shorter | time when 50% of the remaining materials was measured (based on AUC values) ([5]; ip, 50 mg/kg): about 6 hours | time when 50% of the remaining materials was measured (based on AUC values) ([5]; po, 250 mg/kg): about 6 hours | survival rate on the 7th day [6, 11]: 100% | survival rate predicted on the 8th day based on all data up to the 7th day [6, 11]: 100% | amount of the virus remaining in the lung tissue (PCR) ([6]; mouse, in vivo): lowest virus titer | clinical symptoms after SIV challenge ([6]; mouse, in vivo): very mild symptoms | lung lesions at autopsy ([6]; mouse, in vivo): mild lung lesions | weight loss after SIV challenge ([6]; mouse, in vivo): very slight | abnormal lesions due to fed materials (liver, stomach, spleen, kidney, heart, small intestine, large intestine) ([6]; mouse, in vivo): not observed | CC50 (in vitro): > 10 mM | CC50 [7]: > 10 mM | CC50 [8]: > 10 mM | CC50 (MDCK cell line; read-out: CC50 (Table 10, CPV)): > 10 mM | CC50 [9]: > 10 mM | CC50 (MDBK cell line; read-out: CC50 (Table 9, BRV)): > 10 mM | weight gain after PRRSV infection (PRRSV (NA strain); 50 mg/kg/day oral twice/day, 14 days): no delay in weight gain | PRRS virus in lung by immunohistochemistry (PRRSV (NA strain); [12]): only a very small amount of viruses were detected | interstitial pneumonia lesions, visual observation of lung (PRRSV (NA strain); [12]): relatively intact lung | virus titer in lung tissue (PRRSV (NA strain); [12]): reduced compared to the positive control group | CC50 [10]: > 10 mM

Nc1nc2c(ncn2[C@@H](C=O)O[C@@H](C=O)CO)c(=O)[nH]1 [Dialdehyde-guanosine, dialdehyde form of guanosine]
IC50 [1]: 40 µM | PRRSV infection inhibition ([1]; at 40 μM): 50% | PRRSV infection inhibition ([1]; at 100 μM): ≥ 90% | IC50 [2]: 157 µM | IC50 (PCV2): 96.6 µM | IC50 (PRV): 177 µM | IC50 ([3]; MDCK cells, 200 TCID50/well SIV, after 4 days): 171 µM | IC50 (IBV; Vero cells, 200 TCID50/well IBV, after 4 days): 275 µM | IC50 (NDV; Vero cells, 200 TCID50/well NDV, after 3 days): 1120 µM | IC50 (BVDV): 2.76 mM | IC50 (BRV): 88.3 µM | IC50 (CPV): 2.06 mM | CC50 (Vero cell line): > 6 mM | time when 50% of the remaining materials was measured (based on AUC values) ([5]; ip, 50 mg/kg): about 6 hours | time when 50% of the remaining materials was measured (based on AUC values) ([5]; po, 250 mg/kg): about 9 hours | amount of the virus remaining in the lung tissue (PCR) ([6]; mouse, in vivo): slightly lower | clinical symptoms after SIV challenge ([6]; mouse, in vivo): very mild symptoms | lung lesions at autopsy ([6]; mouse, in vivo): mild lung lesions | survival rate on the 7th day ([6]; mouse, in vivo): 80% | survival rate predicted on the 8th day based on all data up to the 7th day ([6]; mouse, in vivo): 60% | weight loss after SIV challenge ([6]; mouse, in vivo): very slight | abnormal lesions due to fed materials (liver, stomach, spleen, kidney, heart, small intestine, large intestine) ([6]; mouse, in vivo): not observed | CC50 (PK15 cell line): > 6 mM | CC50 (MDCK cell line; read-out: CC50 (Table 5, SIV)): > 6 mM | CC50 (MDCK cell line; read-out: CC50 (Table 10, CPV)): > 6 mM | CC50 (MDBK cell line; read-out: CC50 (Table 8, BVDV)): > 6 mM | CC50 (MDBK cell line; read-out: CC50 (Table 9, BRV)): > 6 mM | CC50 (Marc-145 cell line; read-out: CC50 (Table 1, PRRSV), cytotoxicity, WST-1): > 6 mM | cytotoxicity by DAPI staining (Marc-145 cell line; up to 1000 μM): no cytotoxicity was observed
